Measured values reported in patent US20230131899A1, “INHIBITORS OF MICROBIALLY INDUCED AMYLOID” (Axial Therapeutics, Inc., priority 2020, published 2023).
Where two headings read alike, the source gives them in different places.

Legend:
[1] = target: T1, E. coli CsgA (Escherichia coli, UniProt P28307); assay: In vitro ThioflavinT assay of CsgA aggregation (CsgA ThT Assay); assay type: biochemical; details: 1005 minutes; for remaining activity at 25 µM: compound 25 μM; for remaining activity at 100 µM: compound 100 μM
T1 construct: made in house; host or cells: E. coli NEB 3016 slyD::kan, pET11d
T1 sequence (P28307 23-151): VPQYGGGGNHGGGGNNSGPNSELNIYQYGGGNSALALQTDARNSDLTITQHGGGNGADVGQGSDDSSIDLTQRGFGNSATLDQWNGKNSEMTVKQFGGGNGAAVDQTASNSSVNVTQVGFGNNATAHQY
Procedure, shortened: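 Purified C-terminal His-tagged CsgA, monomerised by desalting and 30-kDa filtration, at 2-20 μM with 20-40 μM ThT in 50 mM potassium phosphate pH 7.3, 1% DMSO, compounds 3.125-200 uM; room temperature, fluorescence (ex 438/em 495 nm) read every 15 min. Background-subtracted signal expressed as percent inhibition versus vehicle at 6-6.5 or 8-9 h, or as percent control AUC.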

[2] = test system: CsgA expression in WT E. coli; assay: qRT-PCR of CsgA expression in WT E. coli; assay type: cell-based; details: previously observed
[3] = test system: CsgA expression in E. coli MC4100; assay: Monocolonized Mouse Model: csgA expression in fecal pellets by qRT-PCR; details: 30 mg/kg, day five of treatment, relative to mice treated with vehicle alone (FIGS. 4A-B)
[4] = read-out: CsgA ThT Assay (10 μM CsgA) % Control AUC at 1005 minutes, 25 μM (activity range), CsgA 10 μM, black plates, class symbol
[5] = read-out: CsgA ThT Assay (10 μM CsgA) % Control AUC at 1005 minutes, 25 μM, mean AUC as % of DMSO control, CsgA 10 μM, black plates
[6] = read-out: CsgA ThT Assay (10 μM CsgA) % Control AUC at 1005 minutes, 100 μM (activity range), CsgA 10 μM, black plates, class symbol
[7] = read-out: CsgA ThT Assay (10 μM CsgA) % Control AUC at 1005 minutes, 100 μM, mean AUC as % of DMSO control, CsgA 10 μM, black plates

| Compound | remaining activity at 25 µM [1, 4] | remaining activity at 25 µM [1, 5] | remaining activity at 100 µM [1, 6] | remaining activity at 100 µM [1, 7] | CsgA expression via qRT-PCR [2] | csgA expression in E. coli MC4100 monocolonized mice [3] |
| --- | --- | --- | --- | --- | --- | --- |
| Nc1c(Cc2cccc3ccccc23)c(-c2cccc(C(F)(F)F)c2)c2n(c1=O)C(C(=O)O)CS2 (racemic) [Compound 020, 6-amino-7-(naphthalen-1-ylmethyl)-5-oxo-8-(3-(trifluoromethyl)phenyl)-2,3-dihydro-5H-thiazolo[3,2-a]pyridine-3-carboxylic acid] | 11 to 31% | 18% | < 10% | 7% | inhibit CsgA expression |  |
| CCCN1CC(C(=O)O)n2c(c(-c3cccc(C(F)(F)F)c3)c(Cc3cccc4ccccc34)cc2=O)S1(=O)=O (racemic) [Compound 016, 8-(naphthalen-1-ylmethyl)-6-oxo-2-propyl-9-(3-(trifluoromethyl)phenyl)-3,4-dihydro-2H,6H-pyrido[1,2-e][1,2,5]thiadiazine-4-carboxylic acid 1,1-dioxide] | 31 to 60% | 48% | 31 to 60% | 33% |  | reduction of csgA expression |
| O=C(O)[C@H]1CS(=O)(=O)c2c(-c3cccc(C(F)(F)F)c3)c(Cc3cccc4ccccc34)cc(=O)n21 (single isomer, unassigned) [Compound 010b, 7-(naphthalen-1-ylmethyl)-5-oxo-8-(3-(trifluoromethyl)phenyl)-2,3-dihydro-5H-thiazolo[3,2-a]pyridine-3-carboxylic acid 1,1-dioxide] | > 60% | 85% | 31 to 60% | 45% |  |  |
| CN1CC(C(=O)O)n2c(c(-c3cccc(C(F)(F)F)c3)c(Cc3cccc4ccccc34)c(C(N)=O)c2=O)S1(=O)=O (stereo not shown) [Compound 109, 7-carbamoyl-2-methyl-8-(naphthalen-1-ylmethyl)-6-oxo-9-(3-(trifluoromethyl)phenyl)-3,4-dihydro-2H,6H-pyrido[1,2-e][1,2,5]thiadiazine-4-carboxylic acid 1,1-dioxide] | 31 to 60% | 55% | 11 to 31% | 22% |  |  |
| CCCCCN1CC(C(=O)O)n2c(c(-c3cccc(C(F)(F)F)c3)c(Cc3cccc4ccccc34)cc2=O)S1(=O)=O (racemic) [Compound 025, 8-(naphthalen-1-ylmethyl)-6-oxo-2-pentyl-9-(3-(trifluoromethyl)phenyl)-3,4-dihydro-2H,6H-pyrido[1,2-e][1,2,5]thiadiazine-4-carboxylic acid 1,1-dioxide] | 31 to 60% | 49% |  |  |  |  |
| CN1CC(C(=O)O)n2c1c(-c1cccc(C(F)(F)F)c1)c(Cc1cccc3ccccc13)c(Br)c2=O (stereo not shown) [Compound 119, 6-bromo-1-methyl-7-(naphthalen-1-ylmethyl)-5-oxo-8-(3-(trifluoromethyl)phenyl)-1,2,3,5-tetrahydroimidazo[1,2-a]pyridine-3-carboxylic acid] | 31 to 60% | 47% | 31 to 60% | 35% |  |  |
| CC(C)N1CC(C(=O)O)n2c(c(-c3cccc(C(F)(F)F)c3)c(Cc3cccc4ccccc34)c(NC3CCCC3)c2=O)S1(=O)=O (stereo not shown) [Compound 123, 7-(cyclopentylamino)-2-isopropyl-8-(naphthalen-1-ylmethyl)-6-oxo-9-(3-(trifluoromethyl)phenyl)-3,4-dihydro-2H,6H-pyrido[1,2-e][1,2,5]thiadiazine-4-carboxylic acid 1,1-dioxide] | 11 to 31% | 26% | 11 to 31% | 25% |  |  |
| O=C(O)CN1CC(C(=O)O)n2c(c(-c3cccc(C(F)(F)F)c3)c(Cc3cccc4ccccc34)cc2=O)S1(=O)=O (stereo not shown) [Compound 018, 2-(carboxymethyl)-8-(naphthalen-1-ylmethyl)-6-oxo-9-(3-(trifluoromethyl)phenyl)-3,4-dihydro-2H,6H-pyrido[1,2-e][1,2,5]thiadiazine-4-carboxylic acid 1,1-dioxide] | > 60% | 95% | 31 to 60% | 60% |  |  |
| CN1CC(C(=O)O)n2c(c(-c3cccc(C(F)(F)F)c3)c(Cc3cccc4ccccc34)c(N)c2=O)S1(=O)=O (stereo not shown) [Compound 074, 7-amino-2-methyl-8-(naphthalen-1-ylmethyl)-6-oxo-9-(3-(trifluoromethyl)phenyl)-3,4-dihydro-2H,6H-pyrido[1,2-e][1,2,5]thiadiazine-4-carboxylic acid 1,1-dioxide] | 11 to 31% | 28% | 11 to 31% | 24% |  |  |
| CCCN1CC(C(=O)O)n2c(c(-c3cccc(C(F)(F)F)c3)c(Cc3cccc4ccccc34)c(NC3CCOCC3)c2=O)S1(=O)=O (stereo not shown) [Compound 127, 8-(naphthalen-1-ylmethyl)-6-oxo-2-propyl-7-((tetrahydro-2H-pyran-4-yl)amino)-9-(3-(trifluoromethyl)phenyl)-3,4-dihydro-2H,6H-pyrido[1,2-e][1,2,5] thiadiazine-4-carboxylic acid 1,1-dioxide] | 11 to 31% | 26% | < 10% | 7% |  |  |
